In patent US8030444B2, “Microbicidal compositions comprising human CD38 polypeptides derived from the extracellular membrane-proximal region” (priority 2002, dated 2011):
Read-outs that look alike come from different tables or passages of the source. Ends that are not written are not given here.

Legend:
[1] = Water solubility of peptides
[2] = test system: HIV-1IIIB
[3] = test system: cell cultures
[4] = test system: primary HIV-1 isolates (R5); experiment: Infection of PBMC by primary HIV-1 isolates, p24 ELISA; format: cell-based
[5] = test system: PHA-stimulated PBMC; experiment: Cytokine production by PBMC in response to PHA; format: cell-based
Experimental: To evaluate whether CD3851-74 MBP might costimulate activation of PBMC, tests were conducted to evaluate cytokine production in response to PHA. For this purpose, PBMC were ficoll-separated and incubated with 0, 0.1, 1, 10 nM CD3851-74 MBP, in the presence of 0.1 or 1 μg/ml PHA. Then, supernatants were collected at 4, 12, 24, and 36 h of incubation, and the levels of TNF-alpha, IFN-gamma, IL-02, IL-4, IL-5, IL-6 and IL-10 were tested by ELISA (R and D Systems, Minneapolis, Minn.) or by cytofluorimetric multi-cytokine bead arrays (Becton-Dickinson). […] Some of these effects are depicted in the FIGS. 14, 15, 16 and 17. […] However, if significant, it would not be of safety concern. By contrast, it would support the anti-HIV effect of CD3851-74 MBP, since both TNF-alpha and IL-6 promote HIV-1 replication. […] De S K, Devadas K, Notkins A L. Elevated levels of tumor necrosis factor alpha (TNF-alpha) in human immunodeficiency virus type 1-transgenic mice: prevention of death by antibody to TNF-alpha. J Virol 2002; 76: 11710-4.

[6] = target: FITC-conjugated HIV-1IIIB gp120; experiment: gp120 attachment assay, FITC-gp120 staining of cells by flow cytometry; format: binding; settings: MT-2 cells, 50 nM peptide, 5 μg/ml gp120
Experimental: In gp120 attachment assays, cells were incubated for 30 min. at 4° C. with 2 μg/ml of FlTC-conjugated HIV-1IIIB gp120 (gp120IIIB, Intracell Corp, London, UK) in PBS plus 2% albumin plus 0.01% NaN3 (PBS A/A) in the presence or absence of CD38 or CD38-derived molecules. Cells were then washed three times in PBS A/A, and fluorescence was acquired by flow cytometry. Fluorescence data were expressed as MeFI and normalized for CD4 expression where necessary.
In gp120 attachment assays, cells were incubated with saturating concentrations of FITC-conjugated gp120 from the HIV-1IIIB strain (gp120IIIB) (Intracell Corp, London, UK) in the presence or absence of CD3851-74, (SEQ ID NO:15, 21), and acquired fluorescence flow-cytometrically. The MeFI was used as an estimate of gp120 binding to cells.
HIV-1 gp120 binding experiments confirmed that CD3851-74 MBP inhibits at the level of gp120 attachment to target cells. In these experiments, MT-2 cells were incubated for 30 min. at 4° C. with saturating concentrations (5 μg/ml) of fluorescein isothiocyanate-labeled (FITC) HIV-1IIIB gp 120 (gp 120IIIB) in PBS plus 2% albumin plus 0.01% NaN3 (PBS A/A) in the presence or absence of 50 nM CD3851-74 MBP. Cells were then washed three times in PBS A/A, and fluorescence was acquired by flow cytometry.

[7] = test system: HeLa cells; experiment: Toxicity assays (trypan blue, MTT, propidium iodide/annexin V) on HeLa cells; format: cell-based; settings: 0.1-100 nM
Experimental: (§1) Cell proliferation was assessed by sequential counts of the number of live cells per ml of cell cultures by the trypan-blue exclusion method. Cell viability and apoptosis were analyzed by the methyl tetrazolium (MTT) method (Sigma-Aldrich) according to a procedure previously described in Savarino, A., Calosso, L., Piragino, A., Martini, C., Gennero, L., Pescarmona, G. P., and Pugliese, A. (1999). Modulation of surface transferrin receptors in lymphoid cells de novo infected with human immunodeficiency virus type-1. Cell. Biochem. Funct 17, 47-55, the contents of which are hereby incorporated in their entirety, and by propidium iodide/annexin V FITC staining (MedSystems Diagnostics GmbH, Vienna, Austria) following the manufacturer's instructions.
(§2) Cells (from established cell lines or primary cultures) were resuspended at 2.5×10^5/ml in the presence of 0, 0.1, 1, 10 and 100 nM CD3851-74 MBP. Then, 200 μL portions were transferred to microtiter trays and maintained at 37° C. […] Cell viability was monitored daily by trypan blue-dye exclusion. Cell proliferation was assessed by sequential counts of the number of live cells per ml of cell cultures by the trypan-blue exclusion method. Cell viability and apoptosis were analyzed by the methyl tetrazolium (MTT) method, and by propidium iodide/annexin V fluorescein isothiocyanate (FITC) staining following the manufacturer's instructions. […]

[8] = test system: primary peripheral blood mononuclear cells (PBMC); experiment: Toxicity assays (trypan blue, MTT, propidium iodide/annexin V) on PBMC; format: cell-based
Experimental: as §1, §2

[9] = test system: MT-4 cells; experiment: Toxicity assays (trypan blue, MTT, propidium iodide/annexin V) on MT-4 cells; format: cell-based
Experimental: as §1, §2

[10] = target: T1, recombinant soluble human (rsh) CD4 (Homo sapiens, UniProt P01730); experiment: Binding of biotin-conjugated peptide to plate-adsorbed rshCD4 (ELISA); settings: 0.1-10 μM peptide
T1 construct: recombinant soluble human (rsh) CD4 (2 μg/ml) (R&D Systems); purchased R&D Systems
Experimental: Synthetic peptides from CD38 (SEQ ID NO:23) were conjugated with biotin (Pierce) as described in Wilchek, M., and Bayer, E. A., “Avidin-biotin technology,” Methods Enzymol., 184:1-746 (1990). Briefly, recombinant soluble human (rsh) CD4 (2 μg/ml) (R&D Systems) was adsorbed onto wells of 96-well-ELISA plates. Wells were then saturated with phosphate buffer saline (PBS)+2% bovine serum albumin (BSA), washed with PBS+1% BSA+0.05% Triton X-100, and the plates were incubated for 2 h at 37° C. with 100 μL of different concentrations (0.1-10 μM) of biotin-conjugated peptide. After six washes, 100 microl of streptavidin-conjugated horseradish peroxidase (HRP) from a commercially available HIV-1 p24 ELISA kit (NEN) diluted 1:100 in PBS+1% BSA was added to the wells for 30 min. at room temperature. After six more washes, the wells were incubated in the dark for 30 min. at room temperature with 100 μL of o-phenylenediamine (OPD tablets-Sigma), a chromogenic substrate for HRP diluted in phosphate-citrate buffer pH 5.0 as indicated in the Manufacturer's instructions. Then, the reaction was stopped by adding to each well 100 μL of 4 N sulfuric acid. Plates were read at 450 nm using an automated ELISA reader. […] Negative controls were run by incubating the wells with each of the titrated peptide in the absence of rshCD4 and performing the same steps described above. […]

[11] = test system: HIV-1IIIB-infected MT-4 cells; experiment: HIV-1 cytopathogenicity in MT-4 cells, re-clustering after cluster disruption; format: cell-based; settings: five days post-infection with HIV-1IIIB, 100 μM (FIG. 6)
Experimental: MT-4 cells display a typical clustered pattern. When infected with HIV-1IIIB, MT-4 cells lose the capacity of forming clusters. At five days post-infection, clusters were dissociated by pipetting, and reclustering was examined microscopically after a 3-h incubation at 37° C., as described by Pauwels et al. Pauwels, R., et al., “Sensitive and rapid assay on MT-4 cells for detection of antiviral compounds against the AIDS virus,” J Virol Methods, 16: 171-185 (1987). In MT-4 cells, in fact, HIV-1IIIB acts as a slow/low syncytium-inducing strain whose cytopathic effect consists in loss of cell ability to cluster and is strictly correlated to the level of viral replication.

[12] = test system: HIV-1IIIB; experiment: HIV-1IIIB infection of wild-type MT-2 cells in presence of soluble CD38; format: cell-based
Experimental: In acute infection assays, the appropriate cell types were incubated at 37° C. for 2 h with the viral stock suspensions at a multiplicity of infection (MOI) of approximately 0.1, unless otherwise specified. After three washes, cells were incubated in fresh culture medium for 7 days at 37° C., and cell-free supernatants at different intervals post-infection were harvested for ELISA measurement of HIV-1 p24 (NEN Life Science Prod., Boston Mass.) or HIV-2 p27 (Coulter, Hialeah, Fla.). Where necessary, soluble CD38-derived molecules were added during the step of virus adsorption onto cells.
First, attention was focused on the intracellular (IC) domain of CD38. HIV-1IIIB was used to infect both a MT-2 cell line transfected with a truncated form of CD38 lacking the IC domain (CD3824-300) and wild-type MT-2 cells in the presence of a recombinant soluble form of CD38 consisting solely of the extracellular (EC) domain (sCD3845-300).

In the case of “RQTWSGPGTTKRFPETVLARCVKYTEIH [SEQ ID NO: 13]”, the water solubility [1] is reported as “water-insolubility”.

With “RQQWSGPGTTKRFPETVLARCVKYTEIH [SEQ ID NO: 17]” the water solubility [1] was “water-insolubility”.

With SGPGTTKRFPETVLARCVKYTEIH [CD3851-74] the EC50 ([2]; 1IIIB, 2 h) was 2200 nM, the EC90 ([2]; 1IIIB, 2 h) was 182000 nM and the “toxic effects at the concentrations used” value [3] was “did not carry out toxic effects”.

For “(SGPGTTKRFPETVLACVKYTEIH)8 polylysin [CD3851-74 MBP]”, the “growth kinetics of primary R5 isolates subtype C (VI 829) and subtype A (UG3)” value ([4]; PBMC, 1 nM) was “delayed the growth kinetics”, the estimated selectivity index ([4]; antiviral effects at 0.1 nM, no toxicity up to 100 nM) was 1000 and the “concentration range inhibiting infection of PBMC by primary HIV-1 isolates” value ([4]; pilot experiments, PBMC, isolate VI 829) was 0.1 to 10 nM. For the same substance, the “concentration at which antiviral effects were detected” value ([4]; see Example IV) was 0.1 nM, the “IL-2, IL-4, IL-5 and IL-10 levels versus untreated cells” value ([5]; PBMC, 0.1 or 1 μg/ml PHA, 0.1, 1, 10 nM peptide) was “essentially identical” and the “TNF-alpha and IL-6 levels” value ([5]; PHA-stimulated PBMC, decrease did not reach statistical significance) was “transient and donor-dependent inhibition”. For the same substance, the “gp120-FITC binding to cells” value [6] was “down-modulated”, the “cell proliferation, viability and death” value [7] was “does not alter cell proliferation and viability nor does it induce death” and the “toxicity in uninfected PBMC cultures” value ([8]; 0.1 nM-100 nM, growth kinetics, trypan blue, MTT, annexin V/propidium iodide) was “did not display any significant toxicity”. The “cell proliferation, viability and death” value ([8]; PBMC, PHA-stimulated or unstimulated, three donors, 0.1-100 nM) was “does not alter cell proliferation and viability nor does it induce death”, the “cell proliferation, viability and death” value ([9]; MT-4 cells, 0.1-100 nM) was “does not alter cell proliferation and viability nor does it induce death” and the “range of inhibitory concentrations lower than that of CD3851-74” value ([2]; HIV-1 replication, compared with Example I) was “approximately 1000 fold”. The “concentration range of dose-dependent inhibition of HIV-1IIIB infection” value ([2]; MT-4 cells, p24 ELISA Day 3) was 1 to 10 nM, the EC50 ([2]; read-out: EC50, inhibition of HIV-1IIIB infection, MT-4 cells, p24 ELISA Day 3, peptide added only during virus adsorption) was 12 nM and the EC90 ([2]; read-out: EC90, inhibition of HIV-1IIIB infection, MT-4 cells, p24 ELISA Day 3, peptide added only during virus adsorption) was 75 nM.

With “RWRQTWSGPGTTKRFPETVLARCVKYTEIH [SEQ ID NO: 12]” the water solubility [1] was “water-insolubility”.

In the case of “(GPGTTK)8 polylysin (also: eight copies on polylysine core (MBP); listed as Homo sapiens) [GPGTTK MBP]”, the “anti-HIV activity against higher viral challenge” value ([4]; HIV-1UG3, PBMC, MOI 0.5, 1 nM) is reported as “maintains the anti-HIV activity”, the “association of biotin-conjugated peptide to rshCD4 (O.D.)” value [10] is reported as “associated to rshCD4 in a manner dependent on the concentration” and the “toxic effects on MT-4 cells” value ([9]; concentrations showing anti-HIV effects) is reported as “no toxic effects”. The “ability of infected MT-4 cultures to form clusters” value [11] was “maintained a partial ability to form clusters” and the “inhibition of HIV-1IIIB replication (in words)” value ([2]; MT-4 cells, p24 ELISA) was “dose-dependently inhibited infection”.

For “sCD3845-300: recombinant soluble form of CD38 consisting solely of the extracellular (EC) domain”, the “HIV infection of MT-2 cells” value [12] was “inhibited HIV infection”.

With “RWRQQWSGPGTTKRFPETVLARCVKYTEIH [SEQ ID NO: 16]” the water solubility [1] was “water-insolubility”.

In the case of RWRQTWSGPGTTK [SEQ ID NO: 14], the water solubility [1] is reported as “water-insolubility”.
